Test results as given in patent US5312816A, “Method of combatting osteoporosis in mammalian subjects, utilizing organic boron compounds” (priority 1993, dated 1994).
pIC50: −log10 of the molar value. Like-named read-outs stand apart in the source and are kept apart here.

Legend:
Phosphorus = assay: Serum and urine inorganic phosphorus levels in vivo; details: Cf1 male mice, 8 mg/kg/day I.P. 14 days, N=6
Hydroxyproline = assay: Serum and urine hydroxyproline levels in vivo; details: Cf1 male mice, 8 mg/kg/day I.P. 14 days, N=6
Calcium = assay: Serum and urine calcium levels in vivo; details: Cf1 male mice, 8 mg/kg/day I.P. 14 days, N=6
Acid phosphatase [1] = assay: Human osteoporosis fibroblasts acid phosphatase activity; assay type: cell-based; details: read-out: Acid Phosphatase IC50; Table X; human osteoporosis fibroblasts
Text: (§1) 1. Acid phosphatase -beta glycerol-3-phosphate, pH 5.0, released IP 720 nm.

Cathepsin D [2] = biological target: T1, Cathepsin D (Homo sapiens, UniProt P07339); assay: Human osteoporosis fibroblasts cathepsin D (azo-casein) activity; assay type: cell-based; details: Table X; human osteoporosis fibroblasts, DMEM +10% FCS + P/S; read-out: Cathepsin D IC50
T1 construct: azocasein assay pH 5.0
Text: Osteoporosis Human Fibroblast-CRL-1140, Be SA1

Cathepsin D [3] = biological target: T2, Cathepsin D (Mus musculus, UniProt P18242); assay: Mouse hepatic lysosomal cathepsin D activity; assay type: biochemical
T2 construct: azocasein assay pH 5.0
Text: (§2) 1. Cf1 male mouse hepatic 10% homogenates in 0.25M sucrose+0.001MEDTA,pH 7.2.
(§3) Lysosomal Enzymes - free and total [triton X-100].
(§4) 2. Acid Cathepsin D -azocasein-pH 5.0, hydrolytic azo-peptide produce 366 nm.
Cathepsin azo casein activity -

Aryl sulphatase = assay: Human osteoporosis fibroblasts aryl sulphatase activity; assay type: cell-based; details: read-out: Aryl Sulphatase IC50; Table X; human osteoporosis fibroblasts
Text: 3. Aryl sulphatase- p-nitrocatechol sulfate, pH
5. 8 p-nitro-catechol product 510 nm.

Prostaglandin synthetase = biological target: T3, Prostaglandin synthetase (Bos taurus, UniProt O62664); assay: Prostaglandin synthetase (cyclooxygenase), purified beef seminal vesicle; assay type: biochemical; details: Table IX; commercial enzyme preparation; read-out: Beef Prostaglandin Cyclooxygenase IC50
T3 construct: Prostaglandin synthetase purified beef seminal vesicle; from tissue
T3 sequence (O62664 25-600): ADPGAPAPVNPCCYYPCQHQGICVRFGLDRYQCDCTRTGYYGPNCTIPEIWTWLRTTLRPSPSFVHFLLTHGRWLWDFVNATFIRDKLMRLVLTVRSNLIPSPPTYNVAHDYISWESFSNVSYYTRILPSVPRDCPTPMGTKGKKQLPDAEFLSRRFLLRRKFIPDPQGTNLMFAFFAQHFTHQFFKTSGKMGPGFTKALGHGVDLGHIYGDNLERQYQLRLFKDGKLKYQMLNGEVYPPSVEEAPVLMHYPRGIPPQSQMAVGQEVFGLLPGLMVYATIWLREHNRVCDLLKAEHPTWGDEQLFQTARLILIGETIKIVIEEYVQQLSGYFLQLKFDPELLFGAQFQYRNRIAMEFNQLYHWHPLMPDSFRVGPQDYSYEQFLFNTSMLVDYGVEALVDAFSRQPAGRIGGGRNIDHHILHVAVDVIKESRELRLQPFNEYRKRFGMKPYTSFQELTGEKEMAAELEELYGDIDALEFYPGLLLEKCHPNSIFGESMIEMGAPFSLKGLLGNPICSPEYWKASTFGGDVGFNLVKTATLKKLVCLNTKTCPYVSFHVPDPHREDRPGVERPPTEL
Text: Prostaglandin synthetase purified beef seminal vesicle ^3 H arachidonic acid (86.2 Ci/mmol), tlc separation.

Cf1 male mice = assay: Writhing reflex, 0.6% acetic acid; assay type: in vivo; details: Mus musculus, ip; Table IV; 8 mg/kg I.P.
Acid phosphatase [4] = assay: Mouse hepatic lysosomal acid phosphatase activity; assay type: biochemical; details: Table V; mouse hepatic, 60 min incubation
Text: as §2, §3, §1
Acid phosphatase activity -

Cathepsin = assay: Human leukocyte cathepsin; assay type: cell-based; details: Table XIX; read-out: Human Leukocyte IC50 (head gives no enzyme; beside Cathepsin D)
Text: 5. Human peripheral leukocytes, RPMI-1788
as §4

5'-Lipoxygenase = biological target: T4, 5'-Lipoxygenase (Homo sapiens, UniProt P09917); assay: Human leukocyte 5'-lipoxygenase; assay type: cell-based
T4 construct: human leukocyte tissue culture cells; endogenous in cells; host or cells: Human peripheral leukocytes, RPMI-1788
T4 sequence (P09917 1-674): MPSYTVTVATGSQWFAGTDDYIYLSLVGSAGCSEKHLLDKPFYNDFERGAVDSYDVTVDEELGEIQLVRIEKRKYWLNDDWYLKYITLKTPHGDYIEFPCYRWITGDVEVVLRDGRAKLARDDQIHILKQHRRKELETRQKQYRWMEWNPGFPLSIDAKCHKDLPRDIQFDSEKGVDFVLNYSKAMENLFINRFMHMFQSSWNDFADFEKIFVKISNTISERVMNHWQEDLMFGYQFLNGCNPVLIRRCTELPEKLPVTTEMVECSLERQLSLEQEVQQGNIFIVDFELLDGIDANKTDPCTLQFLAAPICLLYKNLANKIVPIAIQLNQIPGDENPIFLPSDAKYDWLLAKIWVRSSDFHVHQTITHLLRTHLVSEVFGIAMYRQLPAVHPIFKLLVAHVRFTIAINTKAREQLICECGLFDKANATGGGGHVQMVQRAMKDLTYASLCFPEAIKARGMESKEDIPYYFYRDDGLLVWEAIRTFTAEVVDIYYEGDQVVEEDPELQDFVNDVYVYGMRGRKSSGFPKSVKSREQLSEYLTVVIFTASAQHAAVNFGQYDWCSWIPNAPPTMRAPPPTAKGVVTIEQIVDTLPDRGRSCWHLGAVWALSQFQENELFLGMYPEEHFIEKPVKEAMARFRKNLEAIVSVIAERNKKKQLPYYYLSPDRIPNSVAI

[5] = read-out: Mouse Hepatic Cathepsin D IC50, Table XIX

T2 sequence (P18242 65-410): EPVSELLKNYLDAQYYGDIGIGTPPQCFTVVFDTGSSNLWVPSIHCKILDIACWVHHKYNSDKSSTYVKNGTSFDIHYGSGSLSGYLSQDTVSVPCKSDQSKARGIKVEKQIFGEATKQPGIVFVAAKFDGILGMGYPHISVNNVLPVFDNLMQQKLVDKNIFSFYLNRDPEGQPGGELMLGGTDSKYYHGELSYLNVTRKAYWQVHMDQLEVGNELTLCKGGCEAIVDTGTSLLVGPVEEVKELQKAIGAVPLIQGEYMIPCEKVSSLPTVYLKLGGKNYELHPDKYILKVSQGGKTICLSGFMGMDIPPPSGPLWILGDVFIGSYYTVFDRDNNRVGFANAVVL
T1 sequence (P07339 65-412): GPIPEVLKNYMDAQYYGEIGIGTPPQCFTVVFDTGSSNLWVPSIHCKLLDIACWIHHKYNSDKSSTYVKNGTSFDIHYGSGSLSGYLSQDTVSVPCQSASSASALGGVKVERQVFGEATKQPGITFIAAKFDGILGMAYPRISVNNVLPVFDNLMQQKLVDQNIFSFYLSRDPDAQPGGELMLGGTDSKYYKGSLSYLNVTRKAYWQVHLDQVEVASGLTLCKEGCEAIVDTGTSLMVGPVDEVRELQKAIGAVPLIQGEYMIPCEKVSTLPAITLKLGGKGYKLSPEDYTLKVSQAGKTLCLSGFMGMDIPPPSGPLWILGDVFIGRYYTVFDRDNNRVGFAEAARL

SMILES | Phosphorus serum (Phosphorus) [% Control] | Phosphorus urine (Phosphorus) [% Control] | Hydroxyproline serum (Hydroxyproline) [% Control] | Hydroxyproline urine (Hydroxyproline) [% Control] | Calcium serum (Calcium) [% Control] | Calcium urine (Calcium) [% Control] | pIC50 (Cathepsin) | pIC50 (Cathepsin D [3]; [5]) | pIC50 (5'-Lipoxygenase) | other results
COC(=O)[BH2-][NH+](C)C [(CH3)2 NHBH2 COOCH3, Dimethylamine-carbomethoxyborane] | 42.8 | 67.8 | 84.4 | 50.5 | 125.4 | 80.7 |  |  |  | 
O=C(O)[BH2-][n+]1ccccc1 [Compound 15, Pyridine-carboxyborane] |  |  |  |  |  |  |  |  |  | pIC50 (Acid phosphatase [1]): 4.74; pIC50 (Cathepsin D [2]): 5.09; pIC50 (Cathepsin D [3]; Table V, mouse hepatic, 60 min incubation, read-out: Cathepsin D IC50): 5.32; pIC50 (Aryl sulphatase): 5.09; pIC50 (Prostaglandin synthetase): 5.12; response vs control in vivo at 8 mg/kg (Cf1 male mice): 50%; pIC50 (Acid phosphatase [4]): 5.00
CC(C)[Si](OC[C@H]1O[C@@H](n2cnc3c(=O)[nH]cnc32)C[C@@H]1O[Si](C(C)C)(C(C)C)C(C)C)(C(C)C)C(C)C [Compound 29] |  |  |  |  |  |  | 4.50 | 4.10 | 5.05 | 
CC(C)[Si](OC[C@H]1O[C@@H](n2cnc3c(N)ncnc32)C[C@@H]1O[Si](C(C)C)(C(C)C)C(C)C)(C(C)C)C(C)C [Compound 35] |  |  |  |  |  |  | 4.48 | 4.24 | 5.00 | 
N#C[BH2-][n+]1c(N)ccn([C@H]2C[C@H](O)[C@@H](CO)O2)c1=O [Compound 39, 2'-Deoxycytidine-N3-cyanoborane] |  |  |  |  |  |  | 5.06 |  |  | pIC50 (Cathepsin D [3]; Table XIX, read-out: Mouse Hepatic Cathepsin D IC50): 4.59; pIC50 (5'-Lipoxygenase; Table XIX, read-out: Leukocyte 5' lipoxygenase IC50): 4.89
CC[NH2+][BH2-]C(=O)O [CH3 CH2 NH2 BH2 COOH] | 64.3 | 78.0 | 89.1 | 69.2 | 121.0 | 61.2 |  |  |  | 
